*1 amine or outer side, *2 acyl side, *3 side chain or, on linkers, in order; H or OH if unused. Where a SMILES comes first, the peptide text is derived from it. Bridges are numbered along the chain shown (N, C = ends). Side-chain parts run from the residue outwards. [ ]: non-standard residue; d: D form. The star is where a group is joined. ξ: configuration not given here. X17 = O=C(O)CCCCCCCCCCCCCCCCCCC(=O)N[C@@H](CCC(=O)NCCOCCOCCOCCOCCOCCOCCOCCOCCOCCOCCOCCOCCOCC(=O)*)C(=O)O; X18 = O=C(O)CCCCCCCCCCCCCCCCC(=O)N[C@@H](CCC(=O)NCCOCCOCCOCCOCCOCOCCOCCOCCOCCOCCOCCOCCC(=O)*)C(=O)O; X13 = O=C(O)CCCCCCCCCCCCCCCCC(=O)NCCOCCOCCOCCOCCOCCOCCOCCOCCOCCOCCOCCOCC(=O)*; Me3N+CH2CH2(OCH2CH2)4CO = C[N+](C)(C)CCOCCOCCOCCOCCC(=O)*; Me3N+(CH2)2O(CH2)2O(CH2)2CO = C[N+](C)(C)CCOCCOCCC(=O)*; Trp(7-Me,2,3-dihydro) = Cc1cccc2c1NCC2C[C@H](N)C(=O)O; Trp(7-Me) = Cc1cccc2c(C[C@H](N)C(=O)O)c[nH]c12; C20 diacid = O=C(O)CCCCCCCCCCCCCCCCCCC(=O)*; X6 = CN(CC[C@H](N[*:1])C(=O)[*:2])[*:3]; γGlu = O=C(O)[C@H](CCC(=O)[*:2])N[*:1]; 2Nal = N[C@@H](Cc1ccc2ccccc2c1)C(=O)O; AEF = NCCOc1ccc(C[C@H](N)C(=O)O)cc1; ξAEF = NCCOc1ccc(CC(N)C(=O)O)cc1; 3Pal = N[C@@H](Cc1cccnc1)C(=O)O; Lys(Me) = CNCCCC[C@H](N)C(=O)O; NMeK = CN[C@@H](CCCCN)C(=O)O; Pen = CC(C)(S)[C@H](N)C(=O)O; Thp = NC1(C(=O)O)CCOCC1; Abu = CC[C@H](N)C(=O)O; X1 = C[N+](C)(C)CCCCC*; AEEA = NCCOCCOCC(=O)O; Sar = CNCC(=O)O
Legend:
[1] = system: IL-23-stimulated phosphorylated STAT3 in peripheral blood mononuclear cells (PBMCs); assay: PBMC pSTAT3 Assay; type: cell-based; conditions: PBMCs from healthy donors; 30 min preincubation with peptide; IL-23 5 ng/mL for 30 min; phospho-STAT3 by MSD
Procedure, shortened: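 Healthy-donor PBMCs expanded 4 days on anti-CD3 with 100 ng/mL IL-1β, starved ~4 h in RPMI-0.1% BSA, preincubated 30 min with peptide, then stimulated 30 min at 37 °C with 5 ng/mL IL-23. Lysate pSTAT3 measured by MSD phospho-STAT panel; IC50 derived.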

IL-23R = target: T1, IL-23R (Homo sapiens, UniProt Q5VWK5); assay: IL23R Reporter Assay; type: cell-based; conditions: HEK293 cells containing IL-23R, IL-12Rβ1 and STAT-inducible firefly luciferase reporter; 10 ng/mL IL-23 (EC90); 5 h
T1 construct: HEK293 cells containing IL-23R, IL-12Rβ1 and a firefly luciferase reporter gene driven by a STAT-inducible promoter (Promega); host or cells: HEK293
T1 sequence (Q5VWK5 24-629): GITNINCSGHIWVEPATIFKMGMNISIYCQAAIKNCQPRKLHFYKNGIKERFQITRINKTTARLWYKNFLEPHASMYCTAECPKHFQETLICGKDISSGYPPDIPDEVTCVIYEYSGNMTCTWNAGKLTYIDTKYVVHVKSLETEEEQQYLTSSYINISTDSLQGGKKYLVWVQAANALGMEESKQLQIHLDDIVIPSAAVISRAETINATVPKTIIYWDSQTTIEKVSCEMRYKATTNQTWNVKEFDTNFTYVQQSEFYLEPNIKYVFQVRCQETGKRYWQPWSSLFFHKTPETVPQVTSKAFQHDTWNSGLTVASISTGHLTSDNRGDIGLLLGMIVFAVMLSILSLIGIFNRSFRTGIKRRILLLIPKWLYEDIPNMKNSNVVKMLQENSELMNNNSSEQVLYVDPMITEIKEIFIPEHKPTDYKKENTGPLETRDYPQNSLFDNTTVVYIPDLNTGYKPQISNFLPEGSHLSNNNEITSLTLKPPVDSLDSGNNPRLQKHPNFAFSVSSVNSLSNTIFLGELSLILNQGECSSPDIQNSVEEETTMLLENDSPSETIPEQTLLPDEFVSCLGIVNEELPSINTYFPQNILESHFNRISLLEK
Procedure, shortened: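 HEK293 cells carrying IL-23R, IL-12Rβ1 and a STAT-driven firefly luciferase reporter (4000 cells/well) received compound, then 10 ng/mL IL-23 solution (EC90), and were incubated for 5 h at 37° C. BioGlo luminescence was normalised to IL-23 alone (0%) and 30 μM control inhibitor (100%). IC50 came from a 4-parameter Hill fit.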

IC50 (IL-23R)	SMILES	IC50 [1]
< 50 nM	CC(=O)NCCCC[C@@H]1NC(=O)[C@H](Cc2c[nH]c3c(C)cccc23)NC(=O)[C@H]([C@@H](C)O)NC(=O)[C@H](CCCCNC(=O)CCOCCOCCOCCOCCOCCOCCOCOCCOCCOCCOCCOCCNC(=O)CC[C@H](NC(=O)CCCCCCCCCCCCCCCCC(=O)O)C(=O)O)NC(=O)[C@@H](NC(C)=O)C(C)(C)SSC(C)(C)[C@@H](C(=O)N[C@@H](Cc2ccc(OCCN)cc2)C(=O)N[C@@H](Cc2ccc3ccccc3c2)C(=O)NC2(C(=O)N[C@@H](CCC(=O)O)C(=O)N[C@@H](CC(N)=O)C(=O)N[C@@H](Cc3cccnc3)C(=O)N(C)CC(N)=O)CCOCC2)NC1=O [compound 97, MeCO-Pen(3)-K(PEG12gEC18OH)-T-7MeW-K(Ac)-Pen(3)-AEF-2Nal-THP-E-N-3Pya-Sar-CONH2] (Ac-[Pen]K(X18)T[Trp(7-Me)]K(Ac)[Pen][AEF][2Nal][Thp]EN[3Pal][Sar]-NH2; disulfide 1-6)	< 0.5 nM
50 to 500 nM	Cc1cccc2c1NCC2C[C@@H]1NC(=O)[C@H]([C@@H](C)O)NC(=O)[C@H](CC(=O)N(C)C)NC(=O)[C@@H](NC(=O)CCOCCOCCOCCOCC[N+](C)(C)C)C(C)(C)SSC(C)(C)[C@@H](C(=O)N[C@@H](Cc2ccc(OCCN)cc2)C(=O)N[C@@H](Cc2ccc3ccccc3c2)C(=O)NC2(C(=O)N[C@@H](CCC(=O)O)C(=O)N[C@@H](CC(N)=O)C(=O)N[C@@H](Cc3cccnc3)C(=O)N(C)[C@@H](CCCCNC(=O)COCCOCCOCCOCCOCCOCCOCCOCCOCCOCCOCCOCCNC(=O)CCCCCCCCCCCCCCCCC(=O)O)C(N)=O)CCOCC2)NC(=O)[C@H](CCN(C)C(=O)CCOCCOCCOCCOCC[N+](C)(C)C)NC1=O (some centres unmarked) [compound 136, cPEG5aCO-Pen(3)-N(N(Me)2)-T-7MeW-Dab(NMecPEG5a)-Pen(3)-AEF-2Nal-THP-E-N-3Pya-NMeK(PEG12C18OH)-CONH2] ({Me3N+CH2CH2(OCH2CH2)4CO}-[Pen]D(NMe2)T[Trp(7-Me,2,3-dihydro)][X6](Me3N+CH2CH2(OCH2CH2)4CO)[Pen][AEF][2Nal][Thp]EN[3Pal][NMeK](X13)-NH2; disulfide 1-6)	0.5 to 5 nM
50 to 500 nM	CC[C@@H]1NC(=O)[C@H](Cc2c[nH]c3c(C)cccc23)NC(=O)[C@H]([C@@H](C)O)NC(=O)[C@H](CC(=O)N(C)C)NC(=O)[C@@H](NC(=O)CCOCCOCCOCCOCC[N+](C)(C)C)C(C)(C)SSC(C)(C)[C@@H](C(=O)NC(Cc2ccc(OCCN)cc2)C(=O)N[C@@H](Cc2ccc3ccccc3c2)C(=O)NC2(C(=O)N[C@@H](CCC(=O)O)C(=O)N[C@@H](CC(N)=O)C(=O)N[C@@H](Cc3cccnc3)C(=O)N(C)[C@@H](CCCCNC(=O)COCCOCCNC(=O)COCCOCCNC(=O)CC[C@H](NC(=O)CCCCCCCCCCCCCCCCCCC(=O)O)C(=O)O)C(N)=O)CCOCC2)NC1=O (some centres unmarked) [compound 152, cPEG5aCO-Pen(3)-N(N(Me)2)-T-7MeW-Dab(NMecPEG5A)-Pen(3)-AEF-2Nal-THP-E-N-3Pya-NMeK(PEG2PEG2gEC20OH)-CONH2] ({Me3N+CH2CH2(OCH2CH2)4CO}-[Pen]D(NMe2)T[Trp(7-Me)][Abu][Pen][ξAEF][2Nal][Thp]EN[3Pal][NMeK]([AEEA-AEEA-γGlu-C20 diacid])-NH2; disulfide 1-6)	< 0.5 nM
< 50 nM	CC(=O)N(C)CCCC[C@@H]1NC(=O)[C@H](Cc2c[nH]c3c(C)cccc23)NC(=O)[C@H]([C@@H](C)O)NC(=O)[C@H](CC(=O)N(C)C)NC(=O)[C@@H](NC(=O)[C@@H](CCCCNC(=O)COCCOCCOCCOCCOCCOCCOCCOCCOCCOCCOCCOCCOCCNC(=O)CC[C@H](NC(=O)CCCCCCCCCCCCCCCCCCC(=O)O)C(=O)O)NC(=O)CCOCCOCC[N+](C)(C)C)C(C)(C)SSC(C)(C)[C@@H](C(=O)N[C@@H](Cc2ccc(OCCCCC[N+](C)(C)C)cc2)C(=O)N[C@@H](Cc2ccc3ccccc3c2)C(=O)NC2(C(=O)N[C@@H](CCCCN(C)C(C)=O)C(=O)N[C@@H](CC(N)=O)C(=O)N[C@@H](Cc3cccnc3)C(=O)N(C)CC(=O)N(C)C)CCOCC2)NC1=O [compound 130, cPEG3aCO-k(PEG12gEC20OH)-Pen(3)-N(N(Me)2)-T-7MeW-K(NMeAc)-Pen(3)-TMAPF-2Nal-THP-K(NMeAc)-N-3Pya-Sar-CON(Me)2] ({Me3N+(CH2)2O(CH2)2O(CH2)2CO}-[dK](X17)[Pen]D(NMe2)T[Trp(7-Me)][Lys(Me)](Ac)[Pen]Y(X1)[2Nal][Thp][Lys(Me)](Ac)N[3Pal][Sar]-NMe2; disulfide 2-7)	< 0.5 nM
